{"source": "paper PMC9024361", "about": "“Pharmacokinetics, Tissue Distribution, Metabolism and Excretion of a Novel COX-2 Inhibitor, Vitacoxib, in Rats” (Frontiers in Veterinary Science, 2022)", "key": {"[1]": {"experiment": "Metabolite identification in plasma, bile, urine and feces (UPLC Q-TOF MS)", "type": "in vivo, Wistar rats", "conditions": "rats; for Source (matrices in which the metabolite was detected): single oral 18 mg/kg vitacoxib, Q-TOF MS; for Share of the metabolite in urinary and fecal excretion: urine and feces, not quantified", "experimental": "Six male rats were placed in their own metabolic cages and orally administered a single dose of 18 mg/kg dose of vitacoxib (tablets crushed and dissolved in 0.5% CMC-Na, 6 mg/ml). Bile, fecal, and urine samples were collected from each animal in metabolic cages at 0~8, 8~23, 23~32, 32~48, 48~58, 58~72, 72~82, 82~96, and 96~128 h after administration. The total weight of urine and feces was recorded after collection. Feces samples were diluted with 3 volumes (v/w) of triple-distilled water and homogenized, and the homogenate was stored at −20°C until further analysis.\nChromatographic separation was performed using an ACQUITY UPLC^TM system (Waters Corporation, Milford, MA, USA). A Waters ACQUITY UPLC HSS T3 column (1.7 μm, 2.1 mm × 100 mm) was used for reversed-phase UPLC and the column temperature was maintained at 40°C. The flow rate of the mobile phase was 0.5 ml/min and the injection volume was 5 μl. Mobile phase A was 0.1% formic acid in water and mobile phase B was 0.1% formic acid in methanol. The column was eluted using a linear gradient (0 → 1 min, phase A 90%; 1 → 10 min, phase A 90% → 5%; 10 → 13.5 min, phase A 5% → 5%; and 13.5 → 15 min, phase A 5% → 90%).\nMS analysis was performed using a Xevo G2-S Q-TOF mass spectrometer. The eluent was not shunted but injected directly into the mass analysis system in the positive-ion mode. The source temperature was set at 120°C. The flow rate of the desolvation gas was 800 L/h at a temperature of 500°C. The capillary voltage was set at 3 kV with 35 V as the cone voltage. Methods to analyze different tissues and samples were developed and validated in our lab. Data were analyzed using Metabolynx^TM software (version 4.1), which could automatically identify metabolites by comparing treatment samples with the respective controls."}, "guinea pigs": {"tested_on": "guinea pigs", "design": "method as in PMID 28959651", "conditions": "cited from earlier work"}, "rats": {"tested_on": "rats", "experiment": "Observation of adverse effects after a single oral dose", "type": "in vivo, Wistar rats", "conditions": "single oral dose 18 mg/kg BW", "experimental": "(§1) Five male rats were administered a single dose of vitacoxib (18 mg/kg) obtained by crushing and dissolving vitacoxib tablets in 0.5% CMC-Na (6 mg/ml). Blood samples (0.3 ml) were collected via a cannula directly into heparinized tubes before drug administration and 5, 15, 30 min, and 1, 2, 3, 4, 6, 8, 10, 12, 24, 36, and 48 h after drug administration. The samples were centrifuged at 2,280 × g for 10 min as soon as possible and stored at −20°C until further analysis (within 21 days)."}, "rabbits": {"tested_on": "rabbits", "design": "method as in PMID 28959651", "conditions": "cited from earlier work"}, "rats and mice": {"tested_on": "rats and mice", "design": "method as in PMID 30128300", "conditions": "cited from earlier work"}, "[2]": {"experiment": "Bile excretion of unchanged drug in bile-duct cannulated rats", "type": "in vivo, Wistar rats", "conditions": "single oral 18 mg/kg, 0~72 h", "experimental": "(§2) Eight male rats with bile-duct cannulation were administered 18 mg/kg of vitacoxib (tablets crushed and dissolved in 0.5% CMC-Na, 6 mg/ml). Rats were housed in metabolism cages and bile samples were collected at 2, 4, 6, 8, 10, 14, 24, 36, 48, 60, and 72 h after drug administration. All samples were stored at −20°C until further analysis. […] Vitacoxib in urine, fecal, and bile samples was determined via validation UPLC-MS/MS using the procedure described for blood ([18])."}, "[3]": {"design": "method as in PMID 30076623", "conditions": "horses, 0.1 mg/kg bw; cited from earlier work"}, "[4]": {"experiment": "Plasma pharmacokinetics after a single oral dose", "type": "in vivo", "conditions": "male, Wistar, rat, rats, single p.o. 18 mg/kg b.w., n = 5, plasma", "experimental": "as §1\nVitacoxib in plasma samples was analyzed using an established and validated UPLC-MS/MS (Waters Acquity UPLC and Water Quattro Premier, Waters Co., USA) method using a procedure previously described by our group ([18]). The lower limit of quantification was 0.5 ng/ml and the calibration range of the method was 0.5–1,000 ng/ml. Noncompartmental analysis was performed to determine the pharmacokinetic parameters, as appropriate, using WinNonlin^TM (version 6.4, Certara, Princeton NJ, USA) computational software."}, "[5]": {"tested_on": "Institute of Cancer Research (ICR) mice", "conditions": "mouse, in vivo; cited from earlier work"}, "COX-2 [6]": {"tested_on": "COX-2", "design": "method as in doi:10.11669/cpj.2013.20.011", "conditions": "dogs, preclinical trials; cited from earlier work"}, "[7]": {"conditions": "dog, in vivo, 2 mg/kg; cited from earlier work"}, "SD rats": {"tested_on": "SD rats", "design": "method as in PMID 28238853, PMID 29601910", "conditions": "repeated dietary administration, cited from earlier work"}, "Sprague Dawley (SD) rats": {"tested_on": "Sprague Dawley (SD) rats", "conditions": "rat, in vivo; cited from earlier work"}, "[8]": {"experiment": "Urinary and fecal excretion of unchanged drug", "type": "in vivo, Wistar rats", "conditions": "rats", "experimental": "Six male rats were placed in separate metabolic cages and administered a single oral dose of 18 mg/kg of vitacoxib (tablets were crushed and dissolved in 0.5% CMC-Na, 6 mg/ml). Urine and fecal samples were collected from each animal in metabolic cages at different time points at 2, 4, 6, 8, 10, 14, 24, 36, 48, 60, 72, 84, 96, 108, 120, 132, 144, 156, and 168 h after drug administration.\nas §2"}, "COX-2 [9]": {"tested_on": "COX-2", "design": "method as in doi:10.11669/cpj.2013.20.011", "conditions": "rats, preclinical trials; cited from earlier work"}, "[10]": {"experiment": "Tissue distribution after a single oral dose", "type": "in vivo, Wistar rats", "conditions": "rats", "experimental": "Eighteen rats were administered a single oral dose (18 mg/kg BW) of vitacoxib (tablets crushed and dissolved in 0.5% CMC-Na, 6 mg/ml). Six rats were euthanized at each time point of 0.25, 6, and 24 h after dose administration. The brain, liver, heart, spleen, lungs, bladder, kidneys, gracilis muscle, gastrointestinal tract, large intestinal contents, small intestine, bone marrow, testes, epididymis, thymus gland, fat, and pancreas were collected and weighed. Each sample was diluted with 3 volumes (v/w) of triple-distilled water and homogenized, and the homogenate was stored at −20°C until further analysis. Vitacoxib in tissue samples was analyzed using UPLC-MS/MS by following a previously described procedure."}}, "note": "Entries after “also recorded” stand apart in the source; their conditions may differ. Where two headings read alike, the source gives them in different places."}
{"compound": "CS(=O)(=O)c1ccc(-n2cnc(Cl)c2-c2ccc(CO)cc2)nc1", "note": "[M1]", "values": [{"measurement": "Source (matrices in which the metabolite was detected)", "setting": "[1]", "result": "Plasma, bile, feces, and urine"}, {"measurement": "Share of the metabolite in urinary and fecal excretion", "setting": "[1]", "result": "minor amount of the dose"}]}
{"compound": "Cc1ccc(-c2c(Cl)ncn2-c2ccc(S(C)(=O)=O)cn2)cc1", "note": "[vitacoxib, 2-(4-chloro-5-p-tolyl-1H-imidazol-1-yl)-5-(methylsulfonyl) pyridine]", "values": [{"measurement": "Skin sensitization", "setting": "guinea pigs", "result": "does not cause skin irritation in rabbits or skin sensitization"}, {"measurement": "Adverse effects", "setting": "rats", "result": "No obvious or serious adverse effects; also recorded: no adverse effects"}, {"measurement": "Skin irritation", "setting": "rabbits", "result": "does not cause skin irritation"}, {"measurement": "Mutagenicity", "setting": "rats and mice", "result": "No mutagenicity or teratogenicity"}, {"measurement": "Teratogenicity", "setting": "rats and mice", "result": "No mutagenicity or teratogenicity"}, {"measurement": "Cumulative excretion in bile in unaltered form", "setting": "[2]", "result": "0.0261% ± 0.00627%"}, {"measurement": "T1/2λz", "setting": "[3]", "result": "7.39 ± 4.17", "unit": "h"}, {"measurement": "Tmax", "setting": "[4]; plasma, 18 mg/kg", "result": "~5", "unit": "h"}, {"measurement": "AUC(0-inf)", "setting": "[4]; 0 to infinity, read-out: AUCINF_obs", "result": "4930 ± 588", "unit": "ng·h/mL"}, {"measurement": "AUC(0-t)", "setting": "[4]; 0 to last point", "result": "4900 ± 604", "unit": "ng·h/mL"}, {"measurement": "k el", "setting": "[4]; noncompartmental, read-out: λz (elimination rate constant) (converted)", "result": "4.44e-05", "unit": "s⁻¹"}, {"measurement": "Cmax", "setting": "[4]; read-out: Cmax (maximum plasma concentration)", "result": "450 ± 96.2", "unit": "ng/mL"}, {"measurement": "MRT last", "setting": "[4]; read-out: MRTlast (mean residence time)", "result": "8.09 ± 1.72", "unit": "h"}, {"measurement": "half-life", "setting": "[4]; read-out: T1/2λz (elimination half-life) (converted)", "result": "4.25 ± 0.3", "unit": "h"}, {"measurement": "Oral LD50", "setting": "[5]", "result": "> 5,000 mg/kg body weight (BW)"}, {"measurement": "COX-2 inhibition (specificity)", "setting": "COX-2 [6]", "result": "specifically inhibits COX-2"}, {"measurement": "T1/2λz", "setting": "[7]", "result": "5. 87 ± 3. 37 h"}, {"measurement": "No-observed-adverse-effect-level (90 days)", "setting": "SD rats; 90 days", "result": 20, "unit": "mg/kg"}, {"measurement": "No-observed-adverse-effect-level (180 days)", "setting": "SD rats; 180 days", "result": 6, "unit": "mg/kg BW/day"}, {"measurement": "Oral LD50", "setting": "Sprague Dawley (SD) rats", "result": "> 5,000 mg/kg body weight (BW)"}, {"measurement": "Cumulative excretion in feces in unaltered form", "setting": "[8]; single oral 18 mg/kg, 0~168 h", "result": "4.7334% ± 1.6645%"}, {"measurement": "Cumulative excretion in urine in unaltered form", "setting": "[8]; single oral 18 mg/kg, 0~168 h", "result": "0.0135% ± 0.0053%"}, {"measurement": "Dose recovered in the urine or feces as the parent drug", "setting": "[8]; single oral dose", "result": "< 5", "unit": "%"}, {"measurement": "COX-2 inhibition (specificity)", "setting": "COX-2 [9]", "result": "specifically inhibits COX-2"}, {"measurement": "Crossing of the intestinal barrier", "setting": "[10]; single oral dose 18 mg/kg BW", "result": "could cross the intestinal barrier"}, {"measurement": "Time by which vitacoxib was detected in most tissues", "setting": "[10]; single oral dose 18 mg/kg BW", "result": "≤ 15", "unit": "min"}, {"measurement": "Concentration in most tissues by 24 h after administration", "setting": "[10]; single oral dose 18 mg/kg BW, 24 h", "result": "below the limit of detection"}, {"measurement": "Presence in brain / crossing of blood-brain barrier", "setting": "[10]; single oral dose 18 mg/kg BW, 18 mg/kg", "result": "found in the brain; also recorded: cross the blood-brain barrier"}, {"measurement": "Order of AUC(0~24h) values in different tissues", "setting": "[10]; single oral gavage dose 18 mg/kg bw", "result": "gastric contents > large intestinal contents > small intestinal contents > stomach > large intestine > pancreas > liver > small intestine > fat > lungs > spleen > brain > plasma > testes > kidneys > spinal cord > thymus > bones > heart > spermatic > skeletal muscles > bladder"}]}
{"compound": "CS(=O)(=O)c1ccc(-n2cnc(Cl)c2-c2ccc(C(=O)O)cc2)nc1", "note": "[M2, 4-(4-chloro-1-(5-(methylsulfonyl)pyridin-2-yl)-1H-imidazol-5-yl) benzoic acid]", "values": [{"measurement": "Source (matrices in which the metabolite was detected)", "setting": "[1]", "result": "Bile, feces, and urine"}, {"measurement": "Share of the metabolite in urinary and fecal excretion", "setting": "[1]; listed as carboxylic acid derivative", "result": "major metabolite"}, {"measurement": "Share of the metabolite in urinary and fecal excretion", "setting": "[1]; listed as carboxylic acid metabolite", "result": "primary metabolite"}]}
